How the values were obtained:
[1] = system: transglutaminases present in the granular layer of the human epidermis; assay: In situ binding assay of biotinylated polypeptides on cryosections of human abdominal skin; assay type: biochemical; settings: 100 μM; for marking of the contour of the granular keratinocytes (polypeptide bound to cornified envelopes): 5 mM CaCl2, 2 h at room temperature, confocal microscope; for marking of the granular keratinocytes, negative control: 100 mM EDTA, absence of calcium
Procedure: To determine what region of the LCE6A protein is necessary for binding by the transglutaminases, the applicant arranged for the company MilleGen to synthesize various polypeptides, biotinylated at their N-terminal end, with a length of 9 to 13 amino acids, corresponding to different regions of the amino acid sequence of LCE6A.
These polypeptides were used in binding assays in situ. Cryosections of human abdominal skin, saturated by incubation in the presence of bovine albumin at 1% in PBS for 30 minutes at room temperature, were brought into contact with 100 mM Tris (pH 7.4) containing 100 μM of biotinylated polypeptide and 5 mM of CaCl2. After incubation for 2 h at room temperature, the reaction is stopped by adding EDTA at 25 mM for 5 minutes. The sections are then incubated in PBS containing 1% of SDS to destroy the noncovalent bonds.
The presence of biotinylated polypeptides bound to the cornified envelopes by the transglutaminases that are present and active in the tissue is detected by incubation of the sections with streptavidin-AlexaFluor555 at 5 μg/ml (Invitrogen) and visualization in the confocal microscope.
A positive control is performed in a similar experiment but by incubating the sections with 100 μM of cadaverine coupled to AlexaFluor555 (Invitrogen) instead of the polypeptides. For the negative controls, the cryosections are incubated with each biotinylated polypeptide or with cadaverine coupled to AlexaFluor555 but incubation is carried out in the presence of 100 mM of EDTA and in the absence of calcium.

[2] = system: endogenous transglutaminase; assay: In vitro crosslinking binding assay with short peptide analogues of LCE6A fragments on human skin cryosections; assay type: biochemical; settings: for labelling of the contour of the granular keratinocytes (peptide crosslinked to cornified envelopes) / labelling of the granular keratinocytes, negative control: 100 μM; for labelling of the contour of the granular keratinocytes (peptide crosslinked to cornified envelopes): 5 mM CaCl2, 2 h at room temperature, fluorescence microscope; for labelling of the granular keratinocytes, negative control: in the presence of EDTA, absence of calcium
Procedure: Protocol: The following short peptides derived from the amino acid sequences PEVQKP of LCE6A (amino-acids 49 to 54 of SEQ ID NO:2), which sequences meet the criteria defined above and are biotinylated at their amino-terminus, were synthesized: PGVQKP (SEQ ID NO: 7), PEGQKP (SEQ ID NO: 8), GEVQKP (SEQ ID No: 9), PEVQKG (SEQ ID No: 10).
These peptides were used at a concentration of 100 μM in in situ binding assays. Cryosections of human abdominal skin, saturated by incubation in the presence of bovine albumin at 1% in PBS for 30 minutes at room temperature, were brought into contact with 100 mM Tris (pH 7.4) containing 100 μM of biotinylated polypeptide and 5 mM of CaCl2). After incubation for 2 h at room temperature, the reaction was stopped by adding EDTA at 25 mM for 20 minutes. The sections were then incubated in PBS containing 1% of SDS to destroy the noncovalent bonds. The presence of biotinylated polypeptides bound to the cornified envelopes by the transglutaminases that are present and active in the tissue was detected by incubation of the sections with streptavidin-AlexaFluor555 at 5 μg/ml (Invitrogen) and visualization in the fluorescence microscope. A positive control was performed in a similar experiment but by incubating the sections with 100 μM of the peptide PEVQKP of LCE6A (amino-acids 49 to 54 of SEQ ID NO: 2). For the negative control, the cryosections were incubated with each biotinylated polypeptide but incubation was carried out in the presence of 100 mM of EDTA and in the absence of calcium.

| marking of the granular keratinocytes, negative control [1] | Substance | marking of the contour of the granular keratinocytes (polypeptide bound to cornified envelopes) [1] | further results |
| --- | --- | --- | --- |
| – | EVAKPRRARQALR (Mutated peptide of SEQ ID NO 5) [reference compound] | does not give any pericellular marking | – |
| – | MSQAKQQSW (Mutated peptide of SEQ ID NO 3) [reference compound] | does not give any pericellular marking | – |
| – | PEVQKG (Designed peptide based on homology to amino acid residue 49 to 54 from Protein LCE6A) | – | ability to bind cornified envelopes (conclusion) [2]: possesses the ability to bind cornified envelopes; labelling of the contour of the granular keratinocytes (peptide crosslinked to cornified envelopes) [2]: strong labelling of the contour of the granular keratinocytes; labelling of the granular keratinocytes, negative control [2]: Absence of labelling |
| – | PEVQKP (fragment) | – | labelling of the contour of the granular keratinocytes (peptide crosslinked to cornified envelopes) [2]: labelling of the contour of the granular keratinocytes; labelling of the granular keratinocytes, negative control [2]: Absence of labelling |
| – | RPAPPPISGGGYRAR (Control peptide of SEQ ID NO 19) [reference compound] | does not give any pericellular marking | – |
| no marking is obtained | SEQ ID NO: 3: polypeptide fragment of LCE6A, 9 to 13 amino acids, sequence not printed in the text (MSQQKQQSW; Designed peptide based on homology to amino acid residue 1 to 9 from Protein LCE6A) | – | – |
| no marking is obtained | SEQ ID NO: 4: polypeptide fragment of LCE6A, 9 to 13 amino acids, sequence not printed in the text (SSQRPEVQKPR; Designed peptide based on homology to amino acid residue 45 to 55 from Protein LCE6A) | – | – |
| no marking is obtained | SEQ ID NO: 5: polypeptide fragment of LCE6A, 9 to 13 amino acids, sequence not printed in the text (EVQKPRRARQKLR; Designed peptide based on homology to amino acid residue 50 to 62 from Protein LCE6A) | – | – |
